Test results published in patent publication US6849598B1, “Therapeutic compositions comprising bactericidal/permeability-increasing (BPI) protein products” (XOMA, priority 1995, dated 2005).

System: P. aeruginosa (ATCC 19660)
Assay: Antibiotic susceptibility (MIC, Microscan® MIC Plus Type 2 panel) with rBPI21/P123 and EDTA
Assay type: cell-based
Parameters: key to susceptibility interpretation of MIC (superscript): R: resistant; I: intermediate; S: susceptible
Conditions: for effect of EDTA added to the rBPI21/P123 formulation on susceptibility of the strain to the antibiotic: summary of Table 17
Procedure: In additional experiments, a BPI protein product, rBPI21, was formulated with an anti-bacterial activity enhancing poloxamer, specifically PLURONIC P123, and with various concentrations of EDTA, and was evaluated for its effect on the antibiotic susceptibility of a Pseudomonas aeruginosa (ATCC 19660). Antibiotic susceptibility was determined using Microscan® panel plates (Dade Microscan, West Sacramento, Calif.) that allow simultaneous determination of minimum inhibitory concentrations for a number of different antibiotics.
The antimicrobial susceptibility tests performed on the Microscan® panel plates are miniaturizations of the broth dilution susceptibility test. Antimicrobial agents are serially diluted in Mueller-Hinton broth (supplemented with calcium and magnesium, or with sodium chloride for oxacillin, or with thymidine phosphorylase for trimethoprim, sulfamethoxazole and trimethoprim/ sulfamethoxazole) to concentrations bridging the range of clinical interest. One well on the 96-well Microscan® plate is a growth control well that contains dehydrated broth only. The remaining wells contain dehydrated broth and antibiotic (or broth and biochemical reagent indicator), which is rehydrated to the desired concentration by inoculation of a standardized suspension of test organism. The chromogenic biochemical agent indicators are used to identify and characterize the species of bacteria based on detection of pH changes and substrate utilization. […] Gram-negative and gram positive organisms may be tested using any of the Microscan® panel plates (Microscan®, Dade Microscan, West Sacramento, Calif.). In these experiments with P. aeruginosa, the MIC Plus Type 2 panel plates were used. The concentrations of antibiotics tested in this panel plate are shown below in Table 16. The antibiotic susceptibility standards (interpretation of an MIC as resistant, intermediate or susceptible according to Microscan®'s NCCLS-derived standards) applicable to the gram-negative organisms that may be tested in each panel plate appear below in Table 16A.
For these experiments with P. aeruginosa, the following procedure was performed: The organism was streaked onto TSA plates (Remel, Lenexa, Kans.) and incubated for 18-24 hours overnight. Well-isolated A, colonies from the plates were emulsified in 3 ml of sterile Inoculum Water d(catalog no. B1015-2, MicrosScan® system, Dade Microscan, West Sacramento, Calif.) to a final turbidity equivalent to 0.5 McFarland Barium Sulfate standard. This cell suspension was vortexed for 2 to 3 seconds and 100 μl was transferred to glass tubes containing 25 ml of Inoculum Water with Pluronic-D (catalog no. B1015-7, MicroScan® system, Dade Microscan, West Sacramento, Calif.) (hereinafter “Pluronic Inoculum Water”), or 25 ml of Pluronic Inoculum Water into which rBPI21 in 0.2% PLURONIC P123, 0.002% TWEEN 80, 5mM sodium citrate, 150 mM NaCl (“rBPI21/P123”) had been diluted to 64 μg/ml rBPI21.
The 25 ml of this inoculum containing rBPI21 was mixed by inversion and poured into a tray. The inoculum was drawn up into a manual 96-well pipetting system (RENOK^− rehydrator-inoculator system, Dade Microscan, West Sacramento, Calif.) designed for use with the Microscan® panel plates, and 110 μl of the inoculum was delivered to each well of a Microscan® MIC Plus Type 2 panel plate. When added to the wells, this inoculum achieves a final bacterial concentration of 4×10^5 to 7×10^5 CFU/ml. The panel plates were then incubated at 35° C. for 15-24 hours and read visually for cell growth.
No growth was defined as a slight whiteness in the well or a clear broth. Growth appeared as turbidity which could take the form of a white haze throughout the well, a white button in the center of the well, or a fine granule growth throughout the well. All wells were read against a black indirectly lighted background. Visual results of the biochemical reactions were read into a database for bacterial identification.

[1] = rBPI21/P123 at 64 μg/ml rBPI21, With 0% EDTA
[2] = rBPI21/P123 at 64 μg/ml rBPI21, With 0.01% EDTA
[3] = rBPI21/P123 at 64 μg/ml rBPI21, With 0.05% EDTA
[4] = rBPI21/P123 at 64 μg/ml rBPI21, With 0.1% EDTA

Compound | Minimum Inhibitory Concentration of Antibiotic (Control (No BPI21)) [µg/mL] | susceptibility interpretation of MIC (superscript) (Control (No BPI21)) | Minimum Inhibitory Concentration of Antibiotic [1] [µg/mL] | susceptibility interpretation of MIC (superscript) [1] | Minimum Inhibitory Concentration of Antibiotic [2] [µg/mL] | susceptibility interpretation of MIC (superscript) [2] | Minimum Inhibitory Concentration of Antibiotic [3] [µg/mL] | susceptibility interpretation of MIC (superscript) [3] | Minimum Inhibitory Concentration of Antibiotic [4] [µg/mL] | susceptibility interpretation of MIC (superscript) [4] | effect of EDTA added to the rBPI21/P123 formulation on susceptibility of the strain to the antibiotic
CC1(C)S[C@@H]2[C@H](NC(=O)[C@H](C(=O)O)c3ccsc3)C(=O)N2[C@H]1C(=O)O [Ticarcillin] | < 16 | S | < 16 | S | < 16 | S | < 16 | S | < 16 | S | 
CCN[C@@H]1C[C@H](N)[C@@H](O[C@H]2OC(CN)=CC[C@H]2N)[C@H](O)[C@H]1O[C@H]1OC[C@](C)(O)[C@H](NC)[C@H]1O [Netilmicin] | 4 | S | < 2 | S | < 2 | S | < 2 | S | < 2 | S | 
CC1(C)S[C@@H]2[C@H](NC(=O)[C@H](NC(=O)N3CCN(S(C)(=O)=O)C3=O)c3ccccc3)C(=O)N2[C@H]1C(=O)O [Mezlocillin] | < 16 | S | < 16 | S | < 16 | S | < 16 | S | < 16 | S | 
O=C(O)C1=C(CSc2nnnn2CS(=O)(=O)O)CS[C@@H]2[C@H](NC(=O)[C@H](O)c3ccccc3)C(=O)N12 [Cefonicid] | > 16 | R | > 16 | R | < 2 | S | < 2 | S | < 2 | S | reversing resistance
Amoxicillin/K Clavulanate [Amox/K Clavulanate] | > 32 | R | > 32 | R | < 1 | S | 32 | R | < 1 | S | reversing resistance
CO/N=C(\C(=O)N[C@@H]1C(=O)N2C(C(=O)O)=C(COC(C)=O)CS[C@H]12)c1csc(N)n1 [Cefotaxime] | 32 | I | 16 | I | 4 | S | < 2 | S | < 2 | S | increasing the susceptibility
CCN1CCN(C(=O)N[C@@H](C(=O)N[C@@H]2C(=O)N3C(C(=O)O)=C(CSc4nnnn4C)CS[C@H]23)c2ccc(O)cc2)C(=O)C1=O [Cefoperazone] | < 4 | S | < 4 | S | < 4 | S | < 4 | S | < 4 | S | 
Ticarcillin/K Clavulanate [Ticar/K Clavulanate] | < 16 | S | < 16 | S | < 16 | S | < 16 | S | < 16 | S | 
CC1(C)S[C@@H]2[C@H](NC(=O)C(C(=O)O)c3ccccc3)C(=O)N2[C@H]1C(=O)O (some centres unmarked) [Carbenicillin] | 32 | I | < 16 | S | < 16 | S | < 16 | S | < 16 | S | 
C[C@@H](O)[C@H]1C(=O)N2C(C(=O)O)=C(SCCN=CN)C[C@H]12 [Imipenem] | 1 | S | 1 | S | < 0.5 | S | < 0.5 | S | < 0.5 | S | 
Ampicillin/Sulbactam [Amp/Sulbact] | > 32 | R | > 32 | R | < 1 | S | 16 | I | 16 | I | reversing resistance
C[C@H]1[C@H](NC(=O)/C(=N\OC(C)(C)C(=O)O)c2csc(N)n2)C(=O)N1S(=O)(=O)O [Aztreonam] | 4 | S | 4 | S | < 1 | S | 2 | S | < 1 | S | increasing the susceptibility
